Consider 11 compounds from patent publication US20240076299A1, “TUBERCULATIN ANALOGS AS ANTIVIRAL AGENTS” (priority 2020, published 2024).

The structures appear in SMILES notation. Read-outs that look alike come from different tables or passages of the source.

One data set relates to HIV. As to the kind of experiment: microbe, parasite or virus in culture. The class given is cell-based, HIV-1.
For data set [1], the system named is A549 cells. The note with it: human, 2 days.
In data set [2] the test system is A549 cells. As to the kind of experiment: Cytotoxicity evaluation using the SRB assay. The note with it: Table 1; inhibition of cell growth of host A549 cells by 50%; triplicate.
Another data set has as its system AIV. Nature of the data set: microbe, parasite or virus in culture. The note with it: Influenza A virus, read-out: EC50 (nM) AIV. Type of data set: cell-based, avian influenza virus (H5N1).
Another data set concerns VSV. As to the kind of experiment: microbe, parasite or virus in culture. The class given is cell-based. As to conditions: Vesicular stomatitis virus, read-out: EC50 (nM) VSV.
Data set [3] concerns SARS-CoV-2.
The next data set is described as follows: in vitro. The note with it: human.
The subject of data set [4] is SARS-CoV-2. As to the kind of experiment: microbe, parasite or virus in culture. The note with it: Severe acute respiratory syndrome coronavirus 2, 48 h.
In the next data set the test system is HIV clinical strains. The note with it: background statement; read-out: EC50 against broad HIV clinical strains; cited from earlier work.
Data set [5] is described as follows: Cytotoxicity evaluation using the SRB assay. The note with it: human, A549 cells, triplicate. In general terms: In SRB staining, fixed cells bind dye roughly in proportion to their protein.
Where [6] appears, read: read-out: EC50 (2000 nM) SARS-COV-2.

As usually defined, the EC50 is the concentration that produces a half-maximal response. Take `COc1cc2c(OC3OCC(O)(CO)C3O)c3c(c(-c4cc5c(cc4O)OCO5)c2cc1OC)C(=O)OC3` (single isomer, unassigned) [Compound 47]: the EC50 with HIV is more than 25000 nM. In addition, the CC50 in the data set with A549 cells [1] was more than 25000 nM.
As for `COc1cc2c(OC3OCC(O)(COC4OCC(O)C(O)C4O)C3OC3OCC(O)C(O)C3O)c3c(c(-c4cc5c(cc4O)OCO5)c2cc1OC)C(=O)OC3` (single isomer, unassigned) [Compound 52], the concentration giving a half-maximal response (EC50) with HIV was more than 25000 nM. Moreover, the CC50 in the data set on A549 cells [2] is more than 25000 nM.
Regarding `COc1cc2c(OC3OCC(O)(CO)C3O)c3c(c(-c4cc5c(cc4O)OCO5)c2cc1OC)C(=O)OC3` (single isomer, unassigned) [Compound 46], the EC50 with HIV amounted to 48600 nM. This compound also had a CC50 with A549 cells [1] of more than 50000 nM.
`COc1cc2c(OC3OCC(O)(COC4OCC(O)C(O)C4O)C3OC3OCC(O)C(OC4OCC(O)(CO)C4O)C3O)c3c(c(-c4cc5c(cc4O)OCO5)c2cc1OC)C(=O)OC3` (single isomer, unassigned) [Compound 54] displayed an EC50 with HIV of more than 25000 nM. In the data set on A549 cells [1], this compound returned a CC50 of more than 25000 nM.
On to `COc1cc2c(O[C@H]3OC[C@@]4(COC(=O)c5ccccc5)OC(C)(C)O[C@@H]34)c3c(c(-c4ccc5c(c4)OCO5)c2cc1OC)C(=O)OC3` [Compound 27], for which the concentration for a half-maximal effect (EC50) in the data set on HIV (Human immunodeficiency virus 1) is 384 nM; in the data set with AIV, 16.9 nM; in the data set with VSV, 20.8 nM. For the same compound, the “activity against SARS-CoV-2 (conclusion)” value with SARS-CoV-2 [3] is listed as “active molecules”. Further, the results for the CC50 at 2 days in “in vitro” (CC50 (nM)) and in “in vitro” (CC50 (nM) A549) were 2220 nM and 379 nM, respectively. Further, the inhibition at 2 µM in the data set on SARS-CoV-2 [4] (setting [6]) was 93%.
With `COc1cc2c(O[C@@H]3OC[C@](O)(CO)[C@H]3O)c3c(c(-c4ccc5c(c4)OCO5)c2cc1OC)C(=O)OC3` [Tuberculatin (1), tuberculatin], the 50% effective concentration (EC50) in the data set with HIV (read-out: EC50) is 220 nM. Also, in the data set with A549 cells [2], the CC50 was 3260 nM.
On to `Cc1cn([C@H]2C[C@H](N=[N+]=[N-])[C@@H](CO)O2)c(=O)[nH]c1=O` [Zidovudine (AZT), Zidovudine], for which the 50% effective concentration (EC50) in the data set on HIV clinical strains was 77 to 95 nM.
For `COc1cc2c(OC3OCC(O)(CO)C3O)c3c(c(-c4cc5c(cc4O)OCO5)c2cc1OC)C(=O)OC3` (single isomer, unassigned) [Compound 48], the EC50 with HIV is more than 25000 nM. In the data set with A549 cells [1], this compound registered a CC50 of more than 25000 nM.
As for `COc1cc2c(O[C@H]3OC[C@@]4(CN=[N+]=[N-])OC(C)(C)O[C@@H]34)c3c(c(-c4ccc5c(c4)OCO5)c2cc1OC)C(=O)OC3` [Compound 25], the EC50 came to 441 nM in the data set on HIV (Human immunodeficiency virus 1), 0.72 nM with AIV and 4.52 nM with VSV. In addition, the “activity against SARS-CoV-2 (conclusion)” value with SARS-CoV-2 [3] is listed as “active molecules”. Besides, the inhibition at 2 µM in the data set on SARS-CoV-2 [4] (read-out: EC50 (2000 nM) SARS-COV-2, % inhibitory effect at 2000 nM against SARS-CoV-2, triplicate) was more than 80%. Besides, the CC50 at 2 days turned out to be 648 nM in data set [5] (CC50 (nM) A549, Table 2, host A549 cells) and 1650 nM in data set [5] (CC50 (nM), Table 1, inhibition of cell growth of host A549 cells by 50%).
In the data set on HIV (Human immunodeficiency virus 1), `COc1cc2c(O[C@H]3OC[C@@]4(CNC(C)=O)OC(C)(C)O[C@@H]34)c3c(c(-c4ccc5c(c4)OCO5)c2cc1OC)C(=O)OC3` [Compound 32] yielded a 50% effective concentration (EC50) of 80.9 nM. Also, the “activity against SARS-CoV-2 (conclusion)” value in the data set with SARS-CoV-2 [3] is listed as “active molecules”. The same compound displayed a CC50 at 2 days in “in vitro” (CC50 (nM)) of 441 nM. Moreover, in the data set with SARS-CoV-2 [4] (setting [6]), the inhibition at 2 µM stood at 97.4%.
In the data set with HIV, `COc1cc2c(OC3OCC(O)(CO)C3OC3OCC(O)C(O)C3O)c3c(c(-c4cc5c(cc4O)OCO5)c2cc1OC)C(=O)OC3` (single isomer, unassigned) [Compound 50] displayed an EC50 of 23100 nM. In addition, the CC50 in the data set with A549 cells [1] was more than 25000 nM.
